Activity calls are given as the source filed them.
Key:
Caspase-3 = molecular target: T1, Caspase-3 (Homo sapiens, UniProt P42574); assay type: functional;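 also: Dose-response selectivity test against caspase-3 for candidate inhibitors of sentrin-specific proteases (SENPs)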
T1 sequence (P42574 whole entry): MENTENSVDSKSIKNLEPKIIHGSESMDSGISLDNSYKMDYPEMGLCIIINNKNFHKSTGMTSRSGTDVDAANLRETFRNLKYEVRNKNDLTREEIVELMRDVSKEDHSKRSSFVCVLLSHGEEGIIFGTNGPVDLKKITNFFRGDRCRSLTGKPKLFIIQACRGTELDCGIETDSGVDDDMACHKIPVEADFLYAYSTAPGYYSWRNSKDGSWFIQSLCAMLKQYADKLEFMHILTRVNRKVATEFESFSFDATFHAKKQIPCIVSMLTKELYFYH

[1] = molecular target: T2, Sentrin-specific protease 7 (Homo sapiens, UniProt Q9BQF6); assay type: functional;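 also: Luminescence-based dose-response confirmation of ultra-high-throughput screening hits, measuring inhibition of SENP7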
T2 sequence (Q9BQF6 whole entry): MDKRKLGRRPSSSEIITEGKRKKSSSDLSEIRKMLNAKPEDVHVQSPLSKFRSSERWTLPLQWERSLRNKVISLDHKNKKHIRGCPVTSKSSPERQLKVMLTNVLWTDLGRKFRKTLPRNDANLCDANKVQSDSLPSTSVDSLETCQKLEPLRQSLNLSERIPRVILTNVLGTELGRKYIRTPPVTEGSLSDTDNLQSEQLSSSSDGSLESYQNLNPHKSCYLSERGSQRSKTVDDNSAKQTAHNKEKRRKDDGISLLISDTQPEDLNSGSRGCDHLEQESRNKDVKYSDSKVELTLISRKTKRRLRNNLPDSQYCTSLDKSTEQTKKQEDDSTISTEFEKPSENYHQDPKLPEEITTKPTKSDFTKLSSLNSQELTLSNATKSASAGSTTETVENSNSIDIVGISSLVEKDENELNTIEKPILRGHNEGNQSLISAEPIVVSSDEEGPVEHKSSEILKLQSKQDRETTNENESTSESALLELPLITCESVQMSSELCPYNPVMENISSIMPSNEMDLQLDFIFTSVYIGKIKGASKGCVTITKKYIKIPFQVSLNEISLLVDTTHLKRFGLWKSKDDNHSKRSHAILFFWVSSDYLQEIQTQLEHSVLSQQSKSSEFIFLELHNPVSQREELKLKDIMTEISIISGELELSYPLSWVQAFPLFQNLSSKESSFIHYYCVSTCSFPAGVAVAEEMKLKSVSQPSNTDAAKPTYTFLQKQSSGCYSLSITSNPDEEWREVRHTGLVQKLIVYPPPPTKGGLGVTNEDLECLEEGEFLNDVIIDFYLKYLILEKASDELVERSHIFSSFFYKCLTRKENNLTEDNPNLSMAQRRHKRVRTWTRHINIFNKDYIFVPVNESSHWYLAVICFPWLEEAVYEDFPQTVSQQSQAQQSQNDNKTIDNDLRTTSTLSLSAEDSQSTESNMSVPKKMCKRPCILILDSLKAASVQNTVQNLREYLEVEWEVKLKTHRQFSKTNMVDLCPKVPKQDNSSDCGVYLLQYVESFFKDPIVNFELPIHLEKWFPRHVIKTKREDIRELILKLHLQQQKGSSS

[2] = molecular target: T3, Sentrin-specific protease 8 (Homo sapiens, UniProt Q96LD8); assay type: functional;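 also: luminescence read-out of SENP8 inhibition, dose-response confirmation following an ultra-high-throughput screen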
T3 sequence (Q96LD8 whole entry): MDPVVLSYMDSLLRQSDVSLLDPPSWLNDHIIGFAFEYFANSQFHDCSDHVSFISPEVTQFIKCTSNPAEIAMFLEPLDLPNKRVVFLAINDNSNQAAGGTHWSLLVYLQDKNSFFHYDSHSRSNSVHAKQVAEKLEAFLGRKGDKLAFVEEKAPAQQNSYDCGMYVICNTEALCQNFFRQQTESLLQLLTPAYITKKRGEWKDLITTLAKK

[3] = molecular target: Heat shock protein HSP 90-alpha (Homo sapiens, UniProt P07900); assay type: functional, organism-based
[4] = molecular target: T4, 1-phosphatidylinositol 4,5-bisphosphate phosphodiesterase gamma-1 (Homo sapiens, UniProt P19174); assay: Counterscreen for inhibitors of phospholipase C isozymes (PLC-B3): Fluorescence-based biochemical high throughput dose response assay to identify inhibitors of phospholipase C isozymes (PLC-gamma1).
T4 sequence (P19174 whole entry): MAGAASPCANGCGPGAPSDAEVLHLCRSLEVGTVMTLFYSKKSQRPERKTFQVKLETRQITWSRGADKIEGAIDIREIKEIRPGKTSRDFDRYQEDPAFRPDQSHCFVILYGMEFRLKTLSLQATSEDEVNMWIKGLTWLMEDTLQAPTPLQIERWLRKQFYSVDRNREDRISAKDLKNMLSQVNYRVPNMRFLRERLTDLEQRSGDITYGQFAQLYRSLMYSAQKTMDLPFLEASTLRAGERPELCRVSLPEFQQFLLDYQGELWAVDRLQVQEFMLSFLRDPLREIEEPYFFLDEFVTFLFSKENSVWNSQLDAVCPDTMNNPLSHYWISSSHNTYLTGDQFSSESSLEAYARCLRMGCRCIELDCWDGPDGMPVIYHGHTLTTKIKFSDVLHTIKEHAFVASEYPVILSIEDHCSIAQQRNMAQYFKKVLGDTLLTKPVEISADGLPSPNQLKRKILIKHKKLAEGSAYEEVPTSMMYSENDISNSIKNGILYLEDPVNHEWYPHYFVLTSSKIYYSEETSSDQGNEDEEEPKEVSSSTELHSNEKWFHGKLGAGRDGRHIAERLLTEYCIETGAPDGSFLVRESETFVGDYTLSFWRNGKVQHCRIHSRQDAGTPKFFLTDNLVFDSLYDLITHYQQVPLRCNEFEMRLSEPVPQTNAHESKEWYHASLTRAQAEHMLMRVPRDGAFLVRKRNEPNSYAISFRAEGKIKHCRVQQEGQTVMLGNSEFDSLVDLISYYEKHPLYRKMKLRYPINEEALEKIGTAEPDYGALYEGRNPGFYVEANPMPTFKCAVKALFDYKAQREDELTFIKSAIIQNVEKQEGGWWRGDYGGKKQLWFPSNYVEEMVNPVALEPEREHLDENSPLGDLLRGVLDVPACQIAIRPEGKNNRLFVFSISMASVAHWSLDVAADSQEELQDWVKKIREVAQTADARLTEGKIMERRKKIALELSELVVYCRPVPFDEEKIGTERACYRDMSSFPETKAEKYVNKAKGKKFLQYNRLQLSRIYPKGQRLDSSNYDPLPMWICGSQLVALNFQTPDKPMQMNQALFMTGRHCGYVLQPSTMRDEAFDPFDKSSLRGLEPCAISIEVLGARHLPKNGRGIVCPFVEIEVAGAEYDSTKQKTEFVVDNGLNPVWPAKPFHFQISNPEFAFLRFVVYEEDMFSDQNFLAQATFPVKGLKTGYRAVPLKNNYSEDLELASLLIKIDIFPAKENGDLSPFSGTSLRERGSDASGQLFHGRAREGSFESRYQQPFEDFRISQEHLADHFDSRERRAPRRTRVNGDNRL

[5] = molecular target: Serine/threonine-protein kinase PAK 1 (Homo sapiens, UniProt Q13153); assay type: functional
Sequence of Serine/threonine-protein kinase PAK 1 (Q13153 whole entry): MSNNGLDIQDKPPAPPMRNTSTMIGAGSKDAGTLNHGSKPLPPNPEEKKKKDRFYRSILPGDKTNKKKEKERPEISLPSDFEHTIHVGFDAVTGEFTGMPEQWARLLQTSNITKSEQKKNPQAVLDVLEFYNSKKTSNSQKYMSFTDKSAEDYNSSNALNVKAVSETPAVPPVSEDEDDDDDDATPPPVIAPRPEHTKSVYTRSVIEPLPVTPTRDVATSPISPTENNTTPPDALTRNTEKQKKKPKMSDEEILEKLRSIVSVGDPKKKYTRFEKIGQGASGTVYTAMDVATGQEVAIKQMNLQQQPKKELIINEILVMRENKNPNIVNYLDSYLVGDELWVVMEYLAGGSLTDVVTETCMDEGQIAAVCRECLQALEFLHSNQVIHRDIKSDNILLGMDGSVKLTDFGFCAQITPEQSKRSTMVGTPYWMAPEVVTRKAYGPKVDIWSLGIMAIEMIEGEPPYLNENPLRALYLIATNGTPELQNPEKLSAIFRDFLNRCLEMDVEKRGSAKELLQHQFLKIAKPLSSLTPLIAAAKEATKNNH

| Compound | IC50 (Caspase-3) | IC50 [1] | IC50 [2] | AC50 [3] | IC50 [4] | also measured |
| --- | --- | --- | --- | --- | --- | --- |
| CN(C)S(=O)(=O)Oc1cccc(C(=O)Nc2ccc(Cl)c(Cl)c2)c1 | 52.2 µM (active) | 5.38 µM (active) | 19.6 µM (active) |  |  |  |
| Cc1ccc2[nH]c(/C(C#N)=C/c3ccc(O)c(O)c3)nc2c1 | 28.1 µM (active) | 9.9 µM (active) | 24.3 µM (active) |  |  |  |
| COC(=O)C1CN(C#N)N(c2ccc(Cl)cc2)C12c1ccccc1-c1ccccc12 (stereo unspecified) |  |  |  | 2.75 µM (active) |  |  |
| O=C(NN1C(=O)CSC1=S)C(=O)NN1C(=O)CSC1=S |  |  |  |  | 4.36 µM (active) |  |
| Nc1noc2cccc(-c3cccc(O)c3)c12 |  |  |  |  |  | Ki [5]: > 10 µM (inactive) |
| O=C1NC(=S)S/C1=C\C=C\c1ccc([N+](=O)[O-])o1 |  |  |  | 1.73 µM (active) | > 122 µM (inactive) |  |

Reference: ChEMBL document CHEMBL1201862, “PubChem BioAssay data set” (2004)
